Assay [1] concerns the target T1, wild-type FLT3 phosphorylation in Baf3 FLT3 cells (Homo sapiens, UniProt P36888).
T1 construct: host or cells: Baf3 (murine B cell lymphoma line)
T1 sequence (P36888 27-993): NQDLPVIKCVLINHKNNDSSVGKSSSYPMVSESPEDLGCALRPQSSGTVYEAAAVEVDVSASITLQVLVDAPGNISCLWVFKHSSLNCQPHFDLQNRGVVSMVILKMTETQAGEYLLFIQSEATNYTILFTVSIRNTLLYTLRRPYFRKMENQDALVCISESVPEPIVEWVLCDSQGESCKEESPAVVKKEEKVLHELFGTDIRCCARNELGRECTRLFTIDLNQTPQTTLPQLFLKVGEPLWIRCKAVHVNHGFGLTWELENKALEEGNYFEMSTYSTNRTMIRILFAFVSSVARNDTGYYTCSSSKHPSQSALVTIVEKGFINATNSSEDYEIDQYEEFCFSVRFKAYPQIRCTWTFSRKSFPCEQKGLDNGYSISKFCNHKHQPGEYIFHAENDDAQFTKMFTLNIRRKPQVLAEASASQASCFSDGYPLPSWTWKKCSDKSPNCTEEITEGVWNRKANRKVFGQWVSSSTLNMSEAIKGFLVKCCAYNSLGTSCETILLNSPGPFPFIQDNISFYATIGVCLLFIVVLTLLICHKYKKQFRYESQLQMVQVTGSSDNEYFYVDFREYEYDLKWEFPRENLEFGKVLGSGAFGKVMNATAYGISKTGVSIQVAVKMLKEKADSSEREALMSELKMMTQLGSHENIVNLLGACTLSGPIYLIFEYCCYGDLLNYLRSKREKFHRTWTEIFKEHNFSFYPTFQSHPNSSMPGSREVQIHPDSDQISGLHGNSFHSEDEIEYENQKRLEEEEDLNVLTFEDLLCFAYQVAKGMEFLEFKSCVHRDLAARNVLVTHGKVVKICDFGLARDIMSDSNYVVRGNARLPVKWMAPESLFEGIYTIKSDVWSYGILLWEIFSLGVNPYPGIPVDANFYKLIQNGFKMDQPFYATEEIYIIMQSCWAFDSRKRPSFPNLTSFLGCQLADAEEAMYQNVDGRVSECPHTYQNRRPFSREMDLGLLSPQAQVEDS
Put plainly: Cell-based FLT3 receptor ELISA. The settings on record: FLT ligand-induced FLT3 phosphorylation. Here is the method: Specific cellular inhibition of FLT ligand-induced wild-type FLT3 phosphorylation was measured in the following manner: Baf3 FLT3 cells overexpressing the FLT3 receptor were obtained from Dr. Michael Heinrich (Oregon Health and Sciences University). The Baf3 FLT3 cell lines were created by stable transfection of parental Baf3 cells (a murine B cell lymphoma line dependent on the cytokine IL-3 for growth) with wild-type FLT3. Cells were selected for their ability to grow in the absence of IL-3 and in the presence of FLT3 ligand.
Baf3 cells were maintained in RPMI 1640 with 10% FBS, penn/strep and 10 ng/ml FLT ligand at 37° C., 5% CO2. To measure direct inhibition of the wild-type FLT3 receptor activity and phosphorylation a sandwich ELISA method was developed similar to those developed for other RTKs (see Sadick, M D, Sliwkowski, M X, Nuijens, A, Bald, L, Chiang, N, Lofgren, J A, Wong W L T. Analysis of Heregulin-Induced ErbB2 Phosphorylation with a High-Throughput Kinase Receptor Activation Enzyme-Linked Immunsorbent Assay, Analytical Biochemistry. 1996; 235:207-214 and Baumann C A, Zeng L, Donatelli R R, Maroney A C. Development of a quantitative, high-throughput cell-based enzyme-linked immunosorbent assay for detection of colony-stimulating factor-1 receptor tyrosine kinase inhibitors. J Biochem Biophys Methods. 2004; 60:69-79.). 200 μL of Baf3FLT3 cells (1×10^6/mL) were plated in 96 well dishes in RPMI 1640 with 0.5% serum and 0.01 ng/mL IL-3 for 16 hours prior to 1 hour compound or DMSO vehicle incubation. Cells were treated with 100 ng/mL Flt ligand (R&D Systems Cat# 308-FK) for 10 min. at 37° C. Cells were pelleted, washed and lysed in 100 ul lysis buffer (50 mM Hepes, 150 mM NaCl, 10% Glycerol, 1% Triton-X-100, 10 mM NaF, 1 mM EDTA, 1.5 mM MgCl2, 10 mM NaPyrophosphate) supplemented with phosphatase (Sigma Cat# P2850) and protease inhibitors (Sigma Cat #P8340). Lysates were cleared by centrifugation at 1000×g for 5 minutes at 4° C. Cell lysates were transferred to white wall 96 well microtiter (Costar #9018) plates coated with 50 ng/well anti-FLT3 antibody (Santa Cruz Cat# sc-480) and blocked with SeaBlock reagent (Pierce Cat#37527). Lysates were incubated at 4° C. for 2 hours. Plates were washed 3× with 200 ul/well PBS/0.1% Triton-X-100. Plates were then incubated with 1:8000 dilution of HRP-conjugated anti-phosphotyrosine antibody (Clone 4G10, Upstate Biotechnology Cat#16-105) for 1 hour at room temperature. Plates were washed 3× with 200 ul/well PBS/0.1% Triton-X-100. Signal detection with Super Signal Pico reagent (Pierce Cat#37070) was done according to manufacturer's instruction with a Berthold microplate luminometer. All data points are an average of triplicate samples. […] Inhibition and IC50 data analysis was done with GraphPad Prism using a non-linear regression fit with a multiparamater, sigmoidal dose-response (variable slope) equation.
Background: An ELISA detects its analyte on a solid surface through an enzyme-linked reagent.

For the next assay, the system named is MV4-11 cells. As to the kind of experiment: Inhibition of MV4-11 cell proliferation (CellTiterGlo, 72 h). In kind it is cell-based. The settings on record: Homo sapiens; 72 h growth inhibition. Here is the method:
To assess the cellular potency of the FLT3 inhibitors of Formula I′, FLT3 specific growth inhibition was measured in the leukemic cell line MV4-11 (ATCC Number: CRL-9591). […] MV4-11 cells cannot grow and survive without active FLT3ITD.
To measure proliferation inhibition by test compounds, the luciferase based CellTiterGlo reagent (Promega), which quantifies total cell number based on total cellular ATP concentration, was used. Cells are plated at 10,000 cells per well in 100 ul of in RPMI media containing penn/strep, 10% FBS and 1 ng/ml GM-CSF or 1 ng/ml IL-3 for MV4-11 and Baf3 cells respectively.
Compound dilutions or 0.1% DMSO (vehicle control) are added to cells and the cells are allowed to grow for 72 hours at standard cell growth conditions (37° C., 5% CO2). For activity measurements in MV4-11 cells grown in 50% plasma, cells were plated at 10,000 cells per well in a 1:1 mixture of growth media and human plasma (final volume of 100 μL). To measure total cell growth an equal volume of CellTiterGlo reagent was added to each well, according to the manufacturer's instructions, and luminescence was quantified. Total cell growth was quantified as the difference in luminescent counts (relative light units, RLU) of cell number at Day 0 compared to total cell number at Day 3 (72 hours of growth and/or compound treatment). One hundred percent inhibition of growth is defined as an RLU equivalent to the Day 0 reading. Zero percent inhibition was defined as the RLU signal for the DMSO vehicle control at Day 3 of growth. All data points are an average of triplicate samples. […] Inhibition and IC50 data analysis was done with GraphPad Prism using a non-linear regression fit with a multiparamater, sigmoidal dose-response (variable slope) equation.
MV4-11 cells express the FLT3 internal tandem duplication mutation, and thus are entirely dependent upon FLT3 activity for growth. […] In contrast, the Baf3 cell proliferation is driven by the cytokine IL-3 and thus are used as a non-specific toxicity control for test compounds.
A general note: ATP-based viability assays read luminescence as a measure of living cells.

SMILES strings stand for the structures.

From patent publication US20060281771A1, “SYNERGISTIC MODULATION OF FLT3 KINASE USING AMINOQUINOLINE AND AMINOQUINAZOLINE KINASE MODULATORS” (priority 2005, published 2006) come the findings set out here.

Usually IC50 stands for the concentration that gives 50% inhibition.

Regarding `COc1cc2ncnc(N3CCC(COC(=O)Nc4ccc(C(C)C)cc4)CC3)c2cc1OC` [Compound 22, (4-Isopropyl-phenyl)-carbamic acid 1-(6,7-dimethoxy-quinazolin-4-yl)-piperidin-4-ylmethyl ester], the IC50 is 82 nM in assay [1] and 1700 nM in the assay with MV4-11 cells. The compound `CC(C)Oc1ccc(NC(=O)OC2CCN(c3ccnc4ccccc34)CC2)cc1` [Compound 41] showed an IC50 in the assay on MV4-11 cells of over 10000 nM.

The compound `COc1cc2ncc(C#N)c(N3CCC(OC(=O)Nc4ccc(C(C)C)cc4)CC3)c2cc1OC` [Compound 42, (4-Isopropyl-phenyl)-carbamic acid 1-(3-cyano-6,7-dimethoxy-quinolin-4-yl)-piperidin-4-yl ester] registered an IC50 with MV4-11 cells of 2100 nM. Regarding `COc1cc2ncnc(N3CCC(NC(=O)Nc4ccc(N5CCOCC5)cc4)C3)c2cc1OC` (stereo not shown) [Compound 43, 1-[1-(6,7-Dimethoxy-quinazolin-4-yl)-pyrrolidin-3-yl]-3-(4-morpholin-4-yl-phenyl)-urea], the IC50 in the assay with MV4-11 cells was over 5000 nM.

In the assay with MV4-11 cells, `COc1cc2ncnc(N3CCC(NC(=O)Nc4ccc(OC5CCC5)nc4)C3)c2cc1OC` (stereo not shown) [Compound 44, 1-(6-Cyclobutoxy-pyridin-3-yl)-3-[1-(6,7-dimethoxy-quinazolin-4-yl)-pyrrolidin-3-yl]-urea] returned an IC50 of 1000 nM. On to `COc1cc2ncnc(N3CCC(NC(=O)Nc4ccc(OC5CCCC5)nc4)C3)c2cc1OC` (stereo not shown) [Compound 45, 1-(6-Cyclopentyloxy-pyridin-3-yl)-3-[1-(6,7-dimethoxy-quinazolin-4-yl)-pyrrolidin-3-yl]-urea], for which the IC50 in the assay on MV4-11 cells stood at 1100 nM.

`COc1cc2ncnc(N3CCC(NC(=O)Nc4ccc(N5CCCC5)nc4)C3)c2cc1OC` (stereo not shown) [Compound 46, 1-[1-(6,7-Dimethoxy-quinazolin-4-yl)-pyrrolidin-3-yl]-3-(6-pyrrolidin-1-yl-pyridin-3-yl)-urea]: inhibition with MV4-11 cells was half-maximal at 3500 nM (IC50). For `COc1cc2ncnc(N3CCC(NC(=O)Nc4ccc(N5CCCCC5)cc4)C3)c2cc1OC` (stereo not shown) [Compound 47, 1-[1-(6,7-Dimethoxy-quinazolin-4-yl)-pyrrolidin-3-yl]-3-(4-piperidin-1-yl-phenyl)-urea], the IC50 in the assay with MV4-11 cells came to 3900 nM. Turning to `COc1cc2ncnc(N3CCC(NC(=O)Nc4ccc(Cl)cc4)C3)c2cc1OC` (stereo not shown) [Compound 48, 1-(4-Chloro-phenyl)-3-[1-(6,7-dimethoxy-quinazolin-4-yl)-pyrrolidin-3-yl]-urea], in the assay on MV4-11 cells, half-maximal inhibition (IC50) was put at 2500 nM. Same read-out and setting: then `COc1cc2ncnc(N3CCC(NC(=O)Nc4ccc(C5CCCCC5)cc4)C3)c2cc1OC` (stereo not shown) [Compound 50, 1-(4-Cyclohexyl-phenyl)-3-[1-(6,7-dimethoxy-quinazolin-4-yl)-pyrrolidin-3-yl]-urea], with 1700 nM; and `COc1cc2ncnc(N3CCC(NC(=O)Nc4ccc(Oc5ccccc5)cc4)C3)c2cc1OC` (stereo not shown) [Compound 51, 1-[1-(6,7-Dimethoxy-quinazolin-4-yl)-pyrrolidin-3-yl]-3-(4-phenoxy-phenyl)-urea], with 1200 nM. As for `COc1cc2ncnc(N3CCC(NC(=O)Nc4ccc(N(C)C)cc4)C3)c2cc1OC` (stereo not shown) [Compound 52, 1-[1-(6,7-Dimethoxy-quinazolin-4-yl)-pyrrolidin-3-yl]-3-(4-dimethylamino-phenyl)-urea], the IC50 in assay [1] amounted to 6600 nM; with MV4-11 cells it was 830 nM.

In turn, `COc1cc2ncnc(N3CCC(NC(=O)Nc4ccc(OC5CCCC5)cc4)C3)c2cc1OC` (stereo not shown) [Compound 53, 1-(4-Cyclopentyloxy-phenyl)-3-[1-(6,7-dimethoxy-quinazolin-4-yl)-pyrrolidin-3-yl]-urea] returned an IC50 in the assay on MV4-11 cells of 1500 nM. With `COc1cc2ncnc(N3CCC(OC(=O)Nc4ccc(OC5CCCC5)cc4)C3)c2cc1OC` (stereo not shown) [Compound 54, (4-Cyclopentyloxy-phenyl)-carbamic acid 1-(6,7-dimethoxy-quinazolin-4-yl)-pyrrolidin-3-yl ester], in the assay with MV4-11 cells, the IC50 worked out at 1500 nM. Consider `COc1cc2ncnc(N3CCC(OC(=O)Nc4ccc(OC5CCCC5)cc4)CC3)c2cc1OC` [Compound 55, (4-Cyclopentyloxy-phenyl)-carbamic acid 1-(6,7-dimethoxy-quinazolin-4-yl)-piperidin-4-yl ester], for which the values for the IC50 (in assay [1]; in the assay with MV4-11 cells) were 420 nM and 560 nM, respectively. For `COc1cc2ncnc(N3CCC(COC(=O)Nc4ccc(OC5CCCC5)cc4)CC3)c2cc1OC` [Compound 56, (4-Cyclopentyloxy-phenyl)-carbamic acid 1-(6,7-dimethoxy-quinazolin-4-yl)-piperidin-4-ylmethyl ester], the IC50 in the assay on MV4-11 cells came out at 740 nM. With `COc1cc2ncnc(N3CCCC(COC(=O)Nc4ccc(OC5CCCC5)cc4)C3)c2cc1OC` (stereo not shown) [Compound 57, (4-Cyclopentyloxy-phenyl)-carbamic acid 1-(6,7-dimethoxy-quinazolin-4-yl)-piperidin-3-ylmethyl ester], the IC50 in assay [1] was found to be 46 nM; in the assay with MV4-11 cells it was 172 nM. Consider `COc1cc2ncnc(N3CCC(NC(=O)Nc4ccc(Cl)cc4)CC3)c2cc1OC` [Compound 61, 1-(4-Chloro-phenyl)-3-[1-(6,7-dimethoxy-quinazolin-4-yl)-piperidin-4-yl]-urea], for which 9400 nM corresponded to half-maximal inhibition in the assay on MV4-11 cells (IC50).
